Consider 12 molecules from PubChem BioAssay (NCI).

What all share (assay): NCI anticancer screen, dose series, 48 h
Experiment [1] deals with 786-0 renal.
Experiment [2] has as its system A549 NSCLC.
Experiment [3] has as its system MALME-3M melanoma.
Experiment [4] relates to MDA-N.
The subject of experiment [5] is NCI-H460 lung.
In experiment [6] the test system is OVCAR-3 ovarian.
In experiment [7] the test system is OVCAR-5 ovarian.
For experiment [8], the system named is SF-295 CNS.
Experiment [9] has as its system SK-MEL-2 melanoma.
In experiment [10] the test system is SK-MEL-5 melanoma.
Experiment [11] relates to SK-OV-3 ovarian.

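Briefly, cells in 96-well plates were exposed to five compound concentrations for 48 h, and endpoints were estimated by linear interpolation. TGI marks complete inhibition of growth.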 Where only a bound is given, the exact number is not on record here.

Take `Nc1nc(Cl)c(N)c(NCC2(CO)CC(OCc3ccccc3)C2)n1` (configuration not stated): the TGI in experiment [1], in [2], in experiment [3], in experiment [4], in [5] and in experiment [6] was above 100 µM throughout. The TGI in [7], in experiment [8], in [9], in experiment [10] and in experiment [11] was above 100 µM each time.
Consider `CN(CCn1cnc2c1c(=O)n(C)c(=O)n2C)C1CCCCC1`, for which the TGI in [1], in experiment [2], in [3], in [4], in experiment [5] and in experiment [6] was above 100 µM in each case. Also, the TGI in experiment [7], in experiment [8], in [9], in experiment [10] and in [11] was above 100 µM in each case.
`COC(=O)/C=C\n1c(C)cc(=O)[nH]c1=O`: the TGI in experiment [1], in [2], in experiment [3], in experiment [4], in experiment [5] and in [6] was above 100 µM each time. In addition, the TGI in experiment [7], in experiment [8], in experiment [9], in [10] and in experiment [11] was above 100 µM in each case.
Turning to `CC[C@]12C=CCN3CC[C@@]4(c5cc(Br)c(OC)cc5N(C)[C@H]4[C@@](O)(C(=O)NN)[C@@H]1O)[C@@H]32`, the TGI in [1], in experiment [2], in [3], in experiment [4], in experiment [5] and in experiment [6] was above 100 µM throughout. The TGI is above 100 µM in experiment [7]; above 100 µM in experiment [8]; 70.6 µM in experiment [9]; above 100 µM in [10]; above 100 µM in experiment [11].
Turning to `CC(C)/C(Cl)=N\OC(=O)Nc1ccccc1F`, the TGI is 29.9 µM in experiment [1]; 35.6 µM in experiment [2]; 8.72 µM in [3]; 30.6 µM in [4]; 36.2 µM in experiment [5]; 34.4 µM in experiment [6]. The TGI in experiment [7] came to 33.3 µM; in experiment [8] it was 30.3 µM; in experiment [9], 33.2 µM; in [10], 27.9 µM; in experiment [11] it was 33.4 µM.
Regarding `CCCCC(C#N)(OP1(=O)OC(c2ccccc2)C(C)N1C)c1ccccc1` (configuration not stated), the TGI was 31.8 µM in experiment [1]; 44.3 µM in experiment [2]; 30.6 µM in [3]; 31.3 µM in experiment [4]; 31 µM in experiment [5]; 31 µM in [6]. The TGI in [7] amounted to 32.2 µM; in experiment [8] it was 32.3 µM; in experiment [9], 34.2 µM; in experiment [10], 34.2 µM; in [11], 43.7 µM.
Regarding `Nc1ncnc2c1nnn2C1C=CC(COS(N)(=O)=O)C1` (configuration not stated), the TGI in experiment [1] was 33.3 µM; in [2] it was above 100 µM; in [3], above 100 µM; in experiment [4] it was 19 µM; in experiment [5], above 100 µM; in experiment [6] it was 96.1 µM. In addition, the TGI in experiment [7] was 49.3 µM; in experiment [8], above 100 µM; in experiment [9] it was 21.4 µM; in experiment [10], 15.9 µM; in experiment [11] it was above 100 µM.
For `O=C1CCC2(CC1CC(Sc1ccccc1)Sc1ccccc1)OCCO2` (configuration not stated), the TGI is above 100 µM in experiment [1]; above 100 µM in experiment [2]; 84.7 µM in experiment [3]; above 100 µM in experiment [4]; above 100 µM in experiment [5]; above 100 µM in experiment [6]. Moreover, the TGI is above 100 µM in [7]; above 100 µM in experiment [8]; above 100 µM in [9]; 38 µM in [10]; above 100 µM in experiment [11].
For the molecule `Cc1c(Cl)nc(Nc2nc3ccccc3[nH]2)nc1Cl`, the TGI in experiment [1], in [2], in experiment [3], in [4], in [5] and in [7] was above 100 µM throughout. In addition, the TGI in experiment [8], in [9], in [10] and in [11] was above 100 µM each time.
On to `O=[N+]([O-])C1CC/C(=N/O)c2nonc21` (configuration not stated), for which the TGI in experiment [1], in experiment [2], in experiment [3], in experiment [4], in experiment [5] and in [6] was above 10 µM in each case. The TGI in [7], in experiment [8] and in experiment [10] was above 10 µM each time.
As to `CC1(C)N=C(C(N)=O)c2ncn(N)c2N1`, the TGI in [1], in experiment [2], in [3], in experiment [4], in [5] and in experiment [6] was above 100 µM in each case. The TGI in experiment [7], in [8], in experiment [10] and in experiment [11] was above 100 µM in each case.
Turning to `O=CN1CCN(C(=O)c2ccc(Cl)cc2Cl)C1=S`, the TGI in experiment [1], in experiment [2], in [3], in experiment [4], in experiment [5] and in experiment [6] was above 100 µM each time. The TGI in experiment [7], in [8], in [9] and in experiment [11] was above 100 µM each time.
